Measurements reported in patent US9529005B2, “Modulating bacterial MAM polypeptides in pathogenic disease” (priority 2011, dated 2016).
Converted amounts (≈) assume the structure as drawn. Read-outs that look alike come from different tables or passages of the source.

Columns and labels:
Assay in all cases: Antimicrobial susceptibility testing (MIC), BD Phoenix Automated Microbiology System; on interpretation of the result: key: R, resistant; I, intermediate; S, susceptible; R*: *As a rule, when ESBL is detected, an interpretation of susceptible or intermediate for penicillins, cephalosporins and aztreonam is reported as resistant
Type in all cases: cell-based
Escherichia coli = conditions: for MIC: Escherichia coli
From the text: (§1) The inventors performed antimicrobial susceptibility testing (AST) by determining the minimal inhibiting concentration (MIC) of a panel of antimicrobials on all twenty bacterial isolates using the BD Phoenix Automated Microbiology System (Table 3). Antimicrobial panels included several drugs from each of the four most commonly used classes of antimicrobials, aminoglycosides, β-lactams, carbapenems and fluoroquinolones. The panels also included antimicrobials from other classes, such as trimethoprim/sulfamethoxazole, but resistance to these was not considered in the classification of isolates as multidrug-resistant.

Acinetobacter baumannii = conditions: for MIC: Acinetobacter baumannii
From the text: as §1

Klebsiella ssp. = conditions: for MIC: Klebsiella
From the text: as §1

Pseudomonas aeruginosa = conditions: for MIC: Pseudomonas aeruginosa
From the text: as §1

[1] = read-out: minimal inhibiting concentration, Escherichia coli isolate 1
[2] = read-out: minimal inhibiting concentration, Escherichia coli isolate 2
[3] = read-out: minimal inhibiting concentration, Escherichia coli isolate 3
[4] = read-out: minimal inhibiting concentration, Escherichia coli isolate 4
[5] = read-out: minimal inhibiting concentration, Escherichia coli isolate 5
[6] = Acinetobacter baumannii isolate 1
[7] = Acinetobacter baumannii isolate 2
[8] = Acinetobacter baumannii isolate 3
[9] = Acinetobacter baumannii isolate 4
[10] = Acinetobacter baumannii isolate 5
[11] = read-out: minimal inhibiting concentration, Acinetobacter baumannii isolate 1
[12] = read-out: minimal inhibiting concentration, Acinetobacter baumannii isolate 2
[13] = read-out: minimal inhibiting concentration, Acinetobacter baumannii isolate 3
[14] = read-out: minimal inhibiting concentration, Acinetobacter baumannii isolate 4
[15] = read-out: minimal inhibiting concentration, Acinetobacter baumannii isolate 5
[16] = Pseudomonas aeruginosa isolate 1
[17] = Pseudomonas aeruginosa isolate 2
[18] = Pseudomonas aeruginosa isolate 3
[19] = Pseudomonas aeruginosa isolate 4
[20] = Pseudomonas aeruginosa isolate 5
[21] = read-out: minimal inhibiting concentration, Pseudomonas aeruginosa isolate 1
[22] = read-out: minimal inhibiting concentration, Pseudomonas aeruginosa isolate 2
[23] = read-out: minimal inhibiting concentration, Pseudomonas aeruginosa isolate 3
[24] = read-out: minimal inhibiting concentration, Pseudomonas aeruginosa isolate 4
[25] = read-out: minimal inhibiting concentration, Pseudomonas aeruginosa isolate 5

Molecule | interpretation of the result (Escherichia coli; Escherichia coli isolate 1) | interpretation of the result (Escherichia coli; Escherichia coli isolate 2) | interpretation of the result (Escherichia coli; Escherichia coli isolate 3) | interpretation of the result (Escherichia coli; Escherichia coli isolate 4) | interpretation of the result (Escherichia coli; Escherichia coli isolate 5) | MIC (Escherichia coli; [1]) [µg/mL] | MIC (Escherichia coli; [2]) [µg/mL] | MIC (Escherichia coli; [3]) [µg/mL] | MIC (Escherichia coli; [4]) [µg/mL] | MIC (Escherichia coli; [5]) [µg/mL] | interpretation of the result (Acinetobacter baumannii; [6]) | interpretation of the result (Acinetobacter baumannii; [7]) | interpretation of the result (Acinetobacter baumannii; [8]) | interpretation of the result (Acinetobacter baumannii; [9]) | interpretation of the result (Acinetobacter baumannii; [10]) | interpretation of the result (Pseudomonas aeruginosa; [16]) | interpretation of the result (Pseudomonas aeruginosa; [17]) | interpretation of the result (Pseudomonas aeruginosa; [18]) | interpretation of the result (Pseudomonas aeruginosa; [19]) | interpretation of the result (Pseudomonas aeruginosa; [20]) | also measured
NC[C@H]1O[C@H](O[C@H]2[C@H](O)[C@@H](O[C@H]3O[C@H](CO)[C@@H](O)[C@H](N)[C@H]3O)[C@H](N)C[C@@H]2N)[C@H](N)C[C@@H]1O [Tob., Tobramycin] | R | R | R | S | R | > 8 | > 8 | > 8 | ≤ 2 | > 8 | I | R | R | R | S | S | R | S | R | R | MIC (Acinetobacter baumannii; [11]): 8 µg/mL (≈ 17.1 µM); MIC (Acinetobacter baumannii; [12]): > 8 µg/mL; MIC (Acinetobacter baumannii; [13]): > 8 µg/mL; MIC (Acinetobacter baumannii; [14]): > 8 µg/mL; MIC (Acinetobacter baumannii; [15]): 4 µg/mL (≈ 8.56 µM); interpretation of the result (Klebsiella ssp.; Klebsiella ssp. isolate 1): I; interpretation of the result (Klebsiella ssp.; Klebsiella ssp. isolate 2): R; interpretation of the result (Klebsiella ssp.; Klebsiella ssp. isolate 3): I; interpretation of the result (Klebsiella ssp.; Klebsiella ssp. isolate 4): I; interpretation of the result (Klebsiella ssp.; Klebsiella ssp. isolate 5): R; MIC (Klebsiella ssp.; read-out: minimal inhibiting concentration, Klebsiella ssp. isolate 1): 8 µg/mL (≈ 17.1 µM); MIC (Klebsiella ssp.; read-out: minimal inhibiting concentration, Klebsiella ssp. isolate 2): > 8 µg/mL; MIC (Klebsiella ssp.; read-out: minimal inhibiting concentration, Klebsiella ssp. isolate 3): 8 µg/mL (≈ 17.1 µM); MIC (Klebsiella ssp.; read-out: minimal inhibiting concentration, Klebsiella ssp. isolate 4): 8 µg/mL (≈ 17.1 µM); MIC (Klebsiella ssp.; read-out: minimal inhibiting concentration, Klebsiella ssp. isolate 5): > 8 µg/mL; MIC (Pseudomonas aeruginosa; [21]): ≤ 2 µg/mL; MIC (Pseudomonas aeruginosa; [22]): > 8 µg/mL; MIC (Pseudomonas aeruginosa; [23]): ≤ 2 µg/mL; MIC (Pseudomonas aeruginosa; [24]): > 8 µg/mL; MIC (Pseudomonas aeruginosa; [25]): > 8 µg/mL
Piperacillin-Tazobactam [PipT.] | I | S | I | I | I | – | – | – | – | – | – | – | – | – | – | R | R | R | S | R | minimal inhibiting concentration (Escherichia coli; Escherichia coli isolate 1): 32/4; minimal inhibiting concentration (Escherichia coli; Escherichia coli isolate 2): 2/4; minimal inhibiting concentration (Escherichia coli; Escherichia coli isolate 3): 32/4; minimal inhibiting concentration (Escherichia coli; Escherichia coli isolate 4): 16/4; minimal inhibiting concentration (Escherichia coli; Escherichia coli isolate 5): 32/4; interpretation of the result (Klebsiella ssp.; Klebsiella ssp. isolate 2): I; minimal inhibiting concentration (Klebsiella ssp.; Klebsiella ssp. isolate 2): 32/4; interpretation of the result (Klebsiella ssp.; Klebsiella ssp. isolate 3): S; minimal inhibiting concentration (Klebsiella ssp.; Klebsiella ssp. isolate 3): 16/4; interpretation of the result (Klebsiella ssp.; Klebsiella ssp. isolate 4): R; minimal inhibiting concentration (Klebsiella ssp.; Klebsiella ssp. isolate 4): 64/4; minimal inhibiting concentration (Pseudomonas aeruginosa; [16]): 64/4; minimal inhibiting concentration (Pseudomonas aeruginosa; [17]): 64/4; minimal inhibiting concentration (Pseudomonas aeruginosa; [18]): 64/4; minimal inhibiting concentration (Pseudomonas aeruginosa; [19]): 32/4; minimal inhibiting concentration (Pseudomonas aeruginosa; [20]): 64/4
CO/N=C(\C(=O)N[C@@H]1C(=O)N2C(C(=O)O)=C(COC(N)=O)CS[C@H]12)c1ccco1 [Cefu., Cefuroxime] | R | R | R | R | R | > 16 | > 16 | > 16 | > 16 | > 16 | R | R | R | R | R | R | R | R | R | R | MIC (Acinetobacter baumannii; [11]): > 16 µg/mL; MIC (Acinetobacter baumannii; [12]): > 16 µg/mL; MIC (Acinetobacter baumannii; [13]): > 16 µg/mL; MIC (Acinetobacter baumannii; [14]): > 16 µg/mL; MIC (Acinetobacter baumannii; [15]): > 16 µg/mL; MIC (Pseudomonas aeruginosa; [21]): > 16 µg/mL; MIC (Pseudomonas aeruginosa; [22]): > 16 µg/mL; MIC (Pseudomonas aeruginosa; [23]): > 16 µg/mL; MIC (Pseudomonas aeruginosa; [24]): > 16 µg/mL; MIC (Pseudomonas aeruginosa; [25]): > 16 µg/mL
